Measured values published in patent publication US20240189387A1, “DOSING REGIMENS FOR HEMATOPOIETIC STEM CELL MOBILIZATION FOR STEM CELL TRANSPLANTS IN MULTIPLE MYELOMA PATIENTS” (Ensoma, Inc., priority 2021, published 2024).
Where two headings read alike, the source gives them in different places.

Key:
[1] = test system: hematopoietic stem and progenitor cells; settings: cited from earlier work
[2] = test system: CD34+ cells; test: Phase 1 trial: mobilization of CD34+ cells into peripheral blood (multicolor flow cytometry); settings: for % ≥20/μL peak CD34+ / Peak CD34+ (#/μL) Median (range): Day 1
[3] = test system: CD34+ cells; test: Phase 1 trial Part D: apheresis collection yield; settings: 2 h stagger after plerixafor
Procedure: (§1) The dose of MGTA-145 was one of 0.0075 mg/kg, 0.015 mg/kg, 0.03 mg/kg, 0.075 mg/kg, 0.15 mg/kg, or 0.3 mg/kg. […] The dose of MGTA-145 was one of 0.015 mg/kg, 0.03 mg/kg, 0.075 mg/kg, or 0.15 mg/kg. […] The dose of MGTA-145 was one of 0.03 mg/kg or 0.075 mg/kg.
The table documents the body weight of each subject, the total CD34+ cells that were obtained through the apheresis procedure, the normalized CD34+ cells/kg of body weight, and the percentage of CD34+ cells that were CD90+CD45RA−.
The table documents the total CD34+ cells that were obtained through the apheresis procedure, the normalized CD34+ cells/kg of body weight, and the percentage of CD34+ cells that were CD90+CD45RA−.

[4] = test system: neutrophils; test: Phase 1 trial: mobilization of neutrophils (automated hematology analyzer); settings: MGTA-145 monotherapy
Procedure: as §1
(§2) Mobilization of white blood cells (WBCs), neutrophils, lymphocytes, basophils, and eosinophils was quantified by automated hematology analyzer.

[5] = format: in vivo
[6] = test system: neutrophil and platelet engraftment; format: in vivo
[7] = test system: white blood cells (WBCs); test: Phase 1 trial: mobilization of white blood cells (automated hematology analyzer); settings: MGTA-145 monotherapy
Procedure: as §1, §2

[8] = test system: MMP-9; test: Phase 1 trial: plasma MMP-9 and TIMP-1 (sandwich immunoassay); format: in vivo, human; settings: MGTA-145 monotherapy, all six doses
Procedure: (§3) Additionally, blood samples were analyzed by multicolor flow cytometry to quantify changes in expression of neutrophil activation markers such as L-selectin, CD11b, CD18, and CD66. Additionally, matrix metalloproteinase 9 (MMP-9), a neutrophil protease believed to mediate mobilization in response to MGTA-145, as well as its cognate inhibitor, TIMP-1, were quantified in plasma samples collected at the same time points by sandwich immunoassay.

[9] = test system: neutrophil activation markers (L-selectin, CD11b, CD18, CD66); test: Phase 1 trial: neutrophil activation markers (flow cytometry); format: in vivo, human; settings: MGTA-145 monotherapy
Procedure: as §3

[10] = Phase 1 trial: treatment emergent adverse events
Source text: FIG. 1A depicts the treatments provided to patient cohorts enrolled in Part A and Part B of a Phase 1 clinical trial as well as measurable endpoints.
Patients were monitored for emergent adverse events.

[11] = test system: CD34+CD90+CD45RA− cells; test: Phase 1 trial: mobilization of CD34+CD90+CD45RA− cells into peripheral blood (flow cytometry)
[12] = target: T1, CXCR2 (Homo sapiens, UniProt P25025); test: Phase 1 trial: CXCR2 expression on peripheral blood neutrophils; format: in vivo
T1 construct: endogenous in cells; host or cells: peripheral blood neutrophils of dosed subjects (in vivo)
T1 sequence (P25025 1-360): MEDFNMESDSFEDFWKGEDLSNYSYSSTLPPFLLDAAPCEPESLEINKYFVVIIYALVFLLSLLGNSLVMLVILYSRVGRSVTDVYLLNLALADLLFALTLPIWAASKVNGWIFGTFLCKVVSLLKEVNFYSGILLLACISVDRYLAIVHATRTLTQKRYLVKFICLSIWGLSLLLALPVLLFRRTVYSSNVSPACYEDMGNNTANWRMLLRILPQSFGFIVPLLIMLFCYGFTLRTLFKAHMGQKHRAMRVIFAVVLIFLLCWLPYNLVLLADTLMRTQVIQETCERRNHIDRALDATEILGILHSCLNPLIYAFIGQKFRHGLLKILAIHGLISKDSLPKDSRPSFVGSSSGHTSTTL

[13] = test system: LT-HSC cells (Lin−c-Kit+Sca1+CD150+CD48−); test: Mobilization in mice and primary/secondary transplantation at limit dilution; format: in vivo; settings: compared to the other cohorts
Source text: Mice (CD45.1) were mobilized according to the scheme shown in FIG. 24 and mobilized cells transplanted into CD45.2 mice at limit dilution.

[14] = test system: graft cell subsets (T cells, B cells, NK cells); settings: cited from earlier work
[15] = test system: CD34+ cells; settings: historical plerixafor alone data, Devine et al., Blood 2008; cited from earlier work
[16] = MGTA-145 monotherapy 0.03 mg/kg
[17] = MGTA-145 monotherapy, the other doses
[18] = higher doses (0.075, 0.15, 0.3 mg/kg), 2 hours post administration
[19] = lower doses (0.0075, 0.015, 0.03 mg/kg)
[20] = Chen et al., 2019, 2 LP plerixafor, 1 LP G-CSF
[21] = Devine et al, 2008, yield of 1 LP
[22] = Part B, plerixafor (pooled placebo + plerixafor), listed as plerixafor
[23] = Part C, 8 patients on combination (0.03 or […]), plerixafor alone
[24] = Part C, plerixafor (pooled placebo + plerixafor), listed as plerixafor
[25] = Part B, combination n = 38, plerixafor n = 14

MGTA-145: Gro-β T (SEQ ID NO: 2), truncated Gro-β with deletion of the first four N-terminal amino acids; CXCR2 agonist
potency to induce hematopoietic stem and progenitor cell mobilization relative to Gro-β ([1]; U.S. Pat. No. 6,080,398): superior to that of Gro-β by multiple orders of magnitude | fold increase of CD34+ cells [2, 16]: 7 fold | peak concentration of CD34+ cells [2, 16]: ~10 cells/μL | time of peak CD34+ mobilization post administration ([2]; MGTA-145 monotherapy, across six doses 0.0075-0.3 mg/kg): about 30 minutes | fold increase of CD34+ cells [2, 17]: 2-3 fold | peak concentration of CD34+ cells ([2]; MGTA-145 monotherapy, the other doses (0.0075, 0.015, 0.075, 0.15, 0.3 mg/kg)): ~5 cells/μL | Percent ≥20/μL ([2]; Part A, MGTA-145 0.03 mg/kg): 0% | Peak CD34+ (#/μL) Median ([2]; Part A, MGTA-145 0.3 mg/kg): 3 #/μL | Percent ≥20/μL ([2]; Part A, MGTA-145 0.3 mg/kg): 0% | Peak CD34+ (#/μL) Median ([2]; Part A, MGTA-145 on Day 1, 0.03 mg/kg): 12 #/μL | CD34+/kg Mean ([3]; MGTA-145 0.03 mg/kg): 4.1 x10^6 | CD34+/kg Median ([3]; MGTA-145 0.03 mg/kg): 4.3 x10^6 | CD90+/kg Mean (CD34+CD90+CD45RA− cells) ([3]; MGTA-145 0.03 mg/kg): 1.3 x10^6 | CD90+/kg Median (CD34+CD90+CD45RA− cells) ([3]; MGTA-145 0.03 mg/kg): 1.5 x10^6 | Total CD34+ Yield Median (range) ([3]; MGTA-145 0.03 mg/kg): 321 (239-500) x10^6 | CD90+ (% of CD34+) ([3]; MGTA-145 0.03 mg/kg, 0.03 mg/kg): 31% | CD90+/kg Mean (CD34+CD90+CD45RA− cells) ([3]; MGTA-145 […]): 1.4 x10^6 | CD90+/kg Median (CD34+CD90+CD45RA− cells) ([3]; MGTA-145 […]): 1.2 x10^6 | CD90+ (% of CD34+) ([3]; MGTA-145 […], […]): 37% | initial plateau of neutrophil mobilization [4, 18]: 5-8 ×10^3 cells/μL | peak mobilization of neutrophils [4, 19]: 13-15 ×10^3 cells/μL | median severity of pain on a scale of 1-10 [5]: 8 (3-10) | patients experiencing hyperhidrosis [5]: 4% | patients experiencing nausea [5]: 8% | patients experiencing thrombocytopenia [5]: 8% | patients experiencing vomiting (grade 2) [5]: 4% | patients with TEAEs at least possibly related to MGTA-145 [5]: 60% | patients with acute pain [5]: 9 patients | patients experiencing pain ([5]; 11 patients): 50% | patients with acute onset transient bone pain with MGTA-145 ([5]; 25 patients): 38% | patients with pain (all grade 1) ([5]; 25 patients): 44% | patients with at least 1 treatment emergent AE with MGTA-145 ([5]; 25 patients, grade 1 n=14, grade 2 n=1): 60% | duration of acute onset transient bone pain ([5]; 25 patients, range 3-28): 7 min | patients with at least 1 adverse event ([5]; initial cohort): 90% | patients with grade 2 AEs (anemia, hypokalemia) ([5]; initial cohort): 20% | patients with grade 3 AEs (worsening of baseline grade 3 anemia; hypocalcemia) ([5]; initial cohort): 20% | tolerability ([5]; multiple myeloma patients): well tolerated | onset of acute and transient bone pain after start of MGTA-145 infusion (median) ([5]; range 3-10): about 5 minutes | median duration of acute and transient bone pain ([5]; range 3-28): 7 min | engraftment at day 100 follow-up ([6]; 14 patients): durable engraftment | engraftment after transplant ([6]; 18 transplanted patients): All patients have engrafted | median time to platelet engraftment (platelets ≥20,000×10^6/L, no transfusion in 7 days) ([6]; 18 transplanted patients): 17.5 days | patients needing RBC transfusion ([6]; 18 transplanted patients): 17% | median time to neutrophil engraftment ([6]; 18 transplanted patients, range 11-15): 12 days | initial plateau of WBC mobilization [7, 18]: 6-10 ×10^3 cells/μL | peak mobilization of WBCs [7, 19]: 15-17 ×10^3 cells/μL | molar ratio of MMP-9:TIMP-1 [8]: rapid increase 30 minutes post-administration | plasma levels of MMP-9 [8]: increased sharply within 30 minutes post-administration | fold change relative to baseline of CD66 ([9]; all doses except the highest (0.3 mg/kg)): < 2 fold | fold change relative to baseline of CD11b and CD18 ([9]; all six doses): < 2 fold | fold change relative to baseline of L-selectin ([9]; all six doses): < 2 fold | Subjects with any drug related TEAE ([10]; Part A, MGTA-145 0.0075-0.3 mg/kg, n = 24): 19 (79.2) n (%) | Back pain/Musculoskeletal pain ([10]; Part A, n = 24): 19 (79.2) n (%) | fold increase of CD34+CD90+CD45RA− cells [11, 16]: ~8.3 fold | peak concentration of CD34+CD90+CD45RA− cells [11, 16]: ~3 cells/μL | time of peak CD34+CD90+CD45RA− mobilization post administration ([11]; MGTA-145 monotherapy, six doses): 30 min | fold increase of CD34+CD90+CD45RA− cells [11, 17]: 2-3.5 fold | peak concentration of CD34+CD90+CD45RA− cells [11, 17]: 1-1.6 cells/μL | CXCR2 expression recovery prior to the second dose ([12]; MGTA-145 0.07 mg/kg, staggered dosing with plerixafor, two consecutive days): ~80 % of baseline | CXCR2 on peripheral neutrophils ([12]; MGTA-145 monotherapy, followed by recovery over 24 hours): rapid downregulation | engraftment rates, secondary transplantation [13]: vastly improved engraftment rates

Gro-β T N65D: SEQ ID NO: 4; Gro-β T with aspartic acid in place of asparagine at position 65
potency (hematopoietic stem and progenitor cell mobilization) relative to Gro-β T ([1]; U.S. Pat. No. 6,447,766): substantially greater than that of Gro-β T

c1cc(CN2CCCNCCNCCCNCC2)ccc1CN1CCCNCCNCCCNCC1 [Plerixafor, 1,1′-[1,4-phenylenebis(methylene)]-bis-1,4,8,11-tetra-azacyclotetradecane]
graft CD34+ Median (range) ([14]; Chen et al., 2019, 2 LP for plerixafor (N = 50+), 1 LP for G-CSF (N = 112+)): 4.7 (0.9-9.6) ×10^6/kg | graft CD3+ Median (range) [14, 20]: 6.0 (2.7-13.0) ×10^8/kg | graft CD4+ Median (range) [14, 20]: 3.6 (2.0-9.4) ×10^8/kg | graft CD8+ Median (range) [14, 20]: 2.2 (0.5-5.0) ×10^8/kg | graft CD19+ Median (range) [14, 20]: 1.5 (0.2-7.4) ×10^8/kg | graft CD56+ Median (range) [14, 20]: 0.4 (0.0-1.1) ×10^8/kg | graft CD3+ Median (range) [14, 21]: 4.6 (1.5-7.8) ×10^8/kg | graft CD4+ Median (range) [14, 21]: 3.2 (1-5.7) ×10^8/kg | graft CD8+ Median (range) [14, 21]: 1.3 (0.4-3.4) ×10^8/kg | graft CD19+ Median (range) [14, 21]: 1.0 (0.2-2.4) ×10^8/kg | graft CD56+ Median (range) [14, 21]: 0.3 (0.1-1.0) ×10^8/kg | graft CD34+ Median (range) ([14]; Devine et al, 2008, yield of 1 LP, plerixafor N = 24, G-CSF N = 8): 2.9 (1.2-6.3) ×10^6/kg | patients with peak CD34+ ≥20 cells/μL (%) [15]: 28% (7/25) | patients with peak CD34+ ≥40 cells/μL (%) [15]: 4% (1/25) | % ≥40/μL peak CD34+ ([2]; Part B, plerixafor): 21% | % ≥20/μL peak CD34+ ([2]; Part B, plerixafor (pooled placebo + plerixafor)): 64% | % ≥20/μL peak CD34+ [2, 22]: 64% | Peak CD34+ (#/μL) Median (range) [2, 22]: 26 #/μL | patients achieving peak CD34+ count of at least 20 cells per microliter [2, 23]: none | patients achieving peak CD34+ count of at least 40 cells per microliter [2, 23]: none | % ≥20/μL peak CD34+ ([2]; Part C, plerixafor (pooled placebo + plerixafor)): 0% | % ≥20/μL peak CD34+ [2, 24]: 0% | Peak CD34+ (#/μL) Median (range) [2, 24]: 18 #/μL | % ≥40/μL peak CD34+ ([2]; Part C, plerixafor, first day): 0% | Peak CD34+ (#/μL) Median ([2]; Part C, pooled placebo + plerixafor, Day 2): 17 #/μL | % ≥40/μL peak CD34+ ([2]; Pooled B + C, plerixafor): 14% | % ≥20/μL peak CD34+ ([2]; Pooled B + C, plerixafor): 50% | % ≥20/μL peak CD34+ ([2]; Pooled B + C, plerixafor, listed as plerixafor): 56% | patients with peak CD34+ ≥20 cells/μL (%) ([2]; plerixafor alone): 50% (7/14) | patients with peak CD34+ ≥40 cells/μL (%) ([2]; plerixafor alone): 14% (2/14) | Abdominal discomfort/pain [10, 25]: 4 (28.6) n (%) | Back pain/Musculoskeletal pain [10, 25]: 2 (14.3) n (%) | Diarrhea [10, 25]: 5 (35.7) n (%) | Dizziness [10, 25]: 1 (7.1) n (%) | Dysgeusia [10, 25]: 2 (14.3) n (%) | Headache [10, 25]: 1 (7.1) n (%) | Nausea [10, 25]: 2 (14.3) n (%) | Vomiting [10, 25]: 1 (7.1) n (%) | median peak CD34+CD90+CD45RA− cells ([11]; plerixafor alone): 8 cells/μL
